{"source": "patent US9890138B2", "about": "“Diaminopyrimidine derivatives and processes for the preparation thereof” (YUHAN CORPORATION, priority 2011, dated 2018)", "note": "Counter-ions that a name gives are not always drawn."}
{"biological_target": "T1, human 5-HT4(a) (Homo sapiens, UniProt Q13639)", "T1 construct": "host or cells: GeneBlAzer HTR4-CRE-bla CHO-K1 cells", "T1 sequence (Q13639 1-387 isoform Q13639-2)": "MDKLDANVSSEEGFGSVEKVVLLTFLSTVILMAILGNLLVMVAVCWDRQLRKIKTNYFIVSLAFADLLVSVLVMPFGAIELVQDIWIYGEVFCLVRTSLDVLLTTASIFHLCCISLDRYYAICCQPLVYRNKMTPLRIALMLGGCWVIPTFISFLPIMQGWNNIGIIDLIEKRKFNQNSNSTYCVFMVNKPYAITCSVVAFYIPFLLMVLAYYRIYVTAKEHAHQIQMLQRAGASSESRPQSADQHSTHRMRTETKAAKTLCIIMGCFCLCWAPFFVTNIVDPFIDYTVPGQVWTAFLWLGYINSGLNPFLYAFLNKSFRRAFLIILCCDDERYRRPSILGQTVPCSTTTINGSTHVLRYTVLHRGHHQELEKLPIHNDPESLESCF", "test": "Evaluation of agonistic activity in CHO-K1 cells expressing human 5-HT4(a) (GeneBlAzer HTR4-CRE-bla CHO-K1, beta-lactamase reporter)", "format": "cell-based", "conditions": "CHO-K1 cells stably expressing human 5-HT4(a)", "method_in_brief": "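Agonism read as CRE-driven β-lactamase activity: emission ratio 465/535 nm (excitation 410 nm) after 2 h substrate loading. Preceded by 5 h compound treatment, 8 concentrations, 1% DMSO in the added solution, of overnight-plated reporter CHO-K1 cells; EC50 by non-linear regression.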", "units": {"EC50": "nM"}}
{"smiles": "CCCc1cc(N2CC[C@H](N)C2)nc(Nc2cccc(C(F)(F)F)c2)n1", "note": "[Example 347, (S)-4-(3-aminopyrrolidin-1-yl)-6-propyl-N-[3-(trifluoromethyl)phenyl]pyrimidin-2-amine dihydrochloride]", "EC50": 0.03}
{"smiles": "CCCc1cc(N2CC[C@H](N)C2)nc(Nc2cc(Cl)ccc2C)n1", "note": "[Example 348, (S)-4-(3-aminopyrrolidin-1-yl)-N-(5-chloro-2-methylphenyl)-6-propylpyrimidin-2-amine dihydrochloride]", "EC50": 0.019}
{"smiles": "CCCc1cc(N2CC[C@H](N)C2)nc(Nc2ccc(C)c(Cl)c2)n1", "note": "[Example 349, (S)-4-(3-aminopyrrolidin-1-yl)-N-(3-chloro-4-methylphenyl)-6-propylpyrimidin-2-amine dihydrochloride]", "EC50": 0.016}
{"smiles": "CCCc1cc(N2CC[C@H](N)C2)nc(Nc2cccc([N+](=O)[O-])c2)n1", "note": "[Example 350, (S)-4-(3-aminopyrrolidin-1-yl)-N-(3-nitrophenyl)-6-propylpyrimidin-2-amine dihydrochloride]", "EC50": 0.012}
{"smiles": "CCCc1cc(N2CC[C@H](N)C2)nc(Nc2ccc(C)c([N+](=O)[O-])c2)n1", "note": "[Example 351, (S)-4-(3-aminopyrrolidin-1-yl)-N-(4-methyl-3-nitrophenyl)-6-propylpyrimidin-2-amine dihydrochloride]", "EC50": 0.0035}
{"smiles": "CCCc1cc(N2CC[C@H](N)C2)nc(Nc2ccc(N)c(C(F)(F)F)c2)n1", "note": "[Example 352]", "EC50": 0.0027}
{"smiles": "CCCc1cc(N2CC[C@H](N)C2)nc(Nc2ccc(F)c(C#N)c2)n1", "note": "[Example 353, (S)-5-[4-(3-aminopyrrolidin-1-yl)-6-propylpyrimidin-2-ylamino]-2-fluorobenzonitrile dihydrochloride]", "EC50": 0.01}
{"smiles": "CCCc1cc(N2CC[C@H](N)C2)nc(Nc2ccc(C)c(C#N)c2)n1", "note": "[Example 354, (S)-5-[4-(3-aminopyrrolidin-1-yl)-6-propylpyrimidin-2-ylamino]-2-methylbenzonitrile dihydrochloride]", "EC50": 0.003}
{"smiles": "CCCc1cc(N2CC[C@H](N)C2)nc(Nc2ccc(N)c(C#N)c2)n1", "note": "[Example 355]", "EC50": 0.007}
{"smiles": "CCCc1cc(N2CC[C@H](N)C2)nc(Nc2ccc(F)c(C(F)(F)F)c2)n1", "note": "[Example 357, (S)-4-(3-aminopyrrolidin-1-yl)-N-[4-fluoro-3-(trifluoromethyl)phenyl]-6-propylpyrimidin-2-amine dihydrochloride]", "EC50": 0.0065}
{"smiles": "CCCc1cc(N2CC[C@H](N)C2)nc(Nc2ccc(F)c([N+](=O)[O-])c2)n1", "note": "[Example 358, (S)-4-(3-aminopyrrolidin-1-yl)-N-(4-fluoro-3-nitrophenyl)-6-propylpyrimidin-2-amine dihydrochloride]", "EC50": 0.014}
{"smiles": "CCCc1cc(N2CC[C@H](N)C2)nc(Nc2ccc(N)c([N+](=O)[O-])c2)n1", "note": "[Example 359]", "EC50": 0.0021}
{"smiles": "CCCc1cc(N2CCC[C@H]2COC)nc(Nc2cccc(N)c2)n1", "note": "[Example 364]", "EC50": 0.122}
{"smiles": "CCCc1cc(N2CCC[C@H]2COC)nc(Nc2ccc(F)c(N)c2)n1", "note": "[Example 365]", "EC50": 0.027}
{"smiles": "CCCc1cc(N2CCC[C@H]2COC)nc(Nc2ccc(C)c(N)c2)n1", "note": "[Example 366]", "EC50": 0.078}
{"smiles": "CCCc1cc(N2CCC[C@H]2COC)nc(Nc2ccc(OC)c(N)c2)n1", "note": "[Example 367, (S)-4-methoxy-N^1-{4-[2-(methoxymethyl)pyrrolidin-1-yl]-6-propylpyrimidin-2-yl}benzene-1,3-diamine]", "EC50": 0.153}
{"smiles": "CCCc1cc(N2CCC[C@H]2COC)nc(Nc2ccc3c(c2)NCC3)n1", "note": "[Example 368]", "EC50": 0.182}
{"smiles": "CCCc1cc(N2CC[C@H](N)C2)nc(Nc2ccc(C)c(N)c2)n1", "note": "[Example 369]", "EC50": 0.049}
{"smiles": "CCCc1cc(N2CC[C@H](N)C2)nc(Nc2ccc(F)c(N)c2)n1", "note": "[Example 370, (S)—N^1-[4-(3-aminopyrrolidin-1-yl)-6-propylpyrimidin-2-yl]-4-fluorobenzene-1,3-diamine dihydrochloride]", "EC50": 0.015}
{"smiles": "CCCc1cc(N2CC[C@H](NCC3CC3)C2)nc(Nc2ccc(Cl)c([N+](=O)[O-])c2)n1", "note": "[Example 372]", "EC50": 0.0046}
{"smiles": "CCCc1cc(N2CC[C@H](NCC3CC3)C2)nc(Nc2ccc(F)c([N+](=O)[O-])c2)n1", "note": "[Example 373]", "EC50": 0.0043}
{"smiles": "CCCc1cc(N2CC[C@H](NCC3CC3)C2)nc(Nc2ccc(C)c([N+](=O)[O-])c2)n1", "note": "[Example 374, (S)-4-[3-(cyclopropylmethylamino)pyrrolidin-1-yl]-N-(4-methyl-3-nitrophenyl)-6-propylpyrimidin-2-amine]", "EC50": 0.0027}
{"smiles": "CCCc1cc(N2CC[C@H](NCC3CC3)C2)nc(Nc2cccc([N+](=O)[O-])c2)n1", "note": "[Example 375, (S)-4-[3-(cyclopropylmethylamino)pyrrolidin-1-yl]-N-(3-nitrophenyl)-6-propylpyrimidin-2-amine]", "EC50": 0.0033}
{"smiles": "CCCc1cc(N2CC[C@H](NCC3CC3)C2)nc(Nc2ccc(F)c(C#N)c2)n1", "note": "[Example 376, (S)-5-{4-[3-(cyclopropylmethylamino)pyrrolidin-1-yl]-6-propylpyrimidin-2-ylamino}-2-fluorobenzonitrile]", "EC50": 0.0037}
{"smiles": "CCCc1cc(N2CC[C@H](NCC3CC3)C2)nc(Nc2ccc(C)c(C#N)c2)n1", "note": "[Example 377, (S)-5-{4-[3-(cyclopropylmethylamino)pyrrolidin-1-yl]-6-propylpyrimidin-2-ylamino}-2-methylbenzonitrile]", "EC50": 0.0013}
{"smiles": "CCCc1cc(N2CC[C@H](NCC3CC3)C2)nc(Nc2cccc(SC)c2)n1", "note": "[Example 378]", "EC50": 0.015}
{"smiles": "CCCc1cc(N2CC[C@H](NCC3CC3)C2)nc(Nc2cccc(C(F)(F)F)c2)n1", "note": "[Example 379]", "EC50": 0.0098}
{"smiles": "CCCc1cc(N2CC[C@H](NCC3CC3)C2)nc(Nc2cc(Cl)ccc2C)n1", "note": "[Example 380]", "EC50": 0.009}
{"smiles": "CCCc1cc(N2CC[C@H](NCC3CC3)C2)nc(Nc2ccc(C)c(Cl)c2)n1", "note": "[Example 381]", "EC50": 0.0043}
{"smiles": "CCCc1cc(N2CC[C@H](NCC3CC3)C2)nc(Nc2ccc(F)c(C(F)(F)F)c2)n1", "note": "[Example 382]", "EC50": 0.0051}
{"smiles": "CCCc1cc(N2CC[C@H](NCC3CC3)C2)nc(Nc2ccc(C)c(N)c2)n1", "note": "[Example 383]", "EC50": 0.0057}
{"smiles": "CCCc1cc(N2CC[C@H](NCC3CC3)C2)nc(Nc2cccc(N)c2)n1", "note": "[Example 384]", "EC50": 0.077}
{"smiles": "CCCc1cc(N2CCC(NCC3CC3)C2)nc(Nc2cccc(C#N)c2)n1", "note": "(centres unmarked) [Example 387, 3-{4-[3-(cyclopropylmethylamino)pyrrolidin-1-yl]-6-propylpyrimidin-2-ylamino}benzonitrile dihydrochloride]", "EC50": 0.007}
{"smiles": "CCCc1cc(N2CC[C@H](NC(=O)CN)C2)nc(Nc2cccc(C#N)c2)n1", "note": "[Example 395]", "EC50": 0.082}
{"smiles": "CCCc1cc(N2CCC[C@H]2CO)nc(Nc2ccc(C)c(N)c2)n1", "note": "[Example 399]", "EC50": 0.13}
{"smiles": "CCCc1cc(N2CCC[C@H]2CO)nc(Nc2ccc(F)c(N)c2)n1", "note": "[Example 400]", "EC50": 0.033}
{"smiles": "CCCc1cc(N2CCC[C@H]2CO)nc(Nc2ccc(Cl)c(N)c2)n1", "note": "[Example 401]", "EC50": 0.073}
{"smiles": "CCCc1cc(N2CCC[C@H]2C=O)nc(Nc2cccc(C#N)c2)n1", "note": "[Example 402, (S)-3-[4-(2-formylpyrrolidin-1-yl)-6-propylpyrimidin-2-ylamino]benzonitrile]", "EC50": 0.236}
{"smiles": "CCCc1cc(N2CCC[C@H]2CNC)nc(Nc2cccc(C#N)c2)n1", "note": "[Example 403]", "EC50": 0.414}
{"smiles": "CCCc1cc(N2CCC[C@H]2CNCc2ccc(F)cc2)nc(Nc2cccc(C#N)c2)n1", "note": "[Example 405]", "EC50": 0.399}
{"smiles": "CCCNC[C@@H]1CCCN1c1cc(CCC)nc(Nc2cccc(C#N)c2)n1", "note": "[Example 406]", "EC50": 0.402}
{"smiles": "CCCc1cc(N2CCC[C@H]2CNCCO)nc(Nc2cccc(C#N)c2)n1", "note": "[Example 407]", "EC50": 0.254}
{"smiles": "CCCN[C@H]1CCN(c2cc(CCC)nc(Nc3ccc(C)c(C#N)c3)n2)C1", "note": "[Example 414]", "EC50": 0.0034}
{"smiles": "CCCc1cc(N2CC[C@H](NCCCSC)C2)nc(Nc2ccc(C)c(C#N)c2)n1", "note": "[Example 415]", "EC50": 0.015}
{"smiles": "CCCc1cc(N2CC[C@H](NCc3ccc[nH]3)C2)nc(Nc2ccc(C)c(C#N)c2)n1", "note": "[Example 416]", "EC50": 0.0074}
{"smiles": "CCCc1cc(N2CC[C@H](NCc3ccc(O)cc3)C2)nc(Nc2ccc(C)c(C#N)c2)n1", "note": "[Example 417]", "EC50": 0.0051}
{"smiles": "CCCc1cc(N2CC[C@H](NC(C)C)C2)nc(Nc2ccc(C)c(C#N)c2)n1", "note": "[Example 418, (S)-5-{4-[3-(isopropylamino)pyrrolidin-1-yl]-6-propylpyrimidin-2-ylamino]-2-methylbenzonitrile]", "EC50": 0.0022}
{"smiles": "CCCc1cc(N2CC[C@H](NC3CCC3)C2)nc(Nc2ccc(C)c(C#N)c2)n1", "note": "[Example 419]", "EC50": 0.0032}
{"smiles": "CCCc1cc(N2CC[C@H](NC3CCCC3)C2)nc(Nc2ccc(C)c(C#N)c2)n1", "note": "[Example 420]", "EC50": 0.0029}
{"smiles": "CCCc1cc(N2CC[C@H](NC3CCCCC3)C2)nc(Nc2ccc(C)c(C#N)c2)n1", "note": "[Example 421]", "EC50": 0.0079}
{"smiles": "CCCCCN[C@H]1CCN(c2cc(CCC)nc(Nc3ccc(C)c(C#N)c3)n2)C1", "note": "[Example 422]", "EC50": 0.011}
{"smiles": "CCCc1cc(N2CC[C@H](NCC(C)(C)C)C2)nc(Nc2ccc(C)c(C#N)c2)n1", "note": "[Example 423]", "EC50": 0.0084}
{"smiles": "CCCc1cc(N2CC[C@H](NCc3cc(C)c(C)o3)C2)nc(Nc2ccc(C)c(C#N)c2)n1", "note": "[Example 424]", "EC50": 0.02}
{"smiles": "CCCc1cc(N2CC[C@H](NC(=O)CC)C2)nc(Nc2ccc(C)c(C#N)c2)n1", "note": "[Example 425]", "EC50": 0.056}
{"smiles": "CCCc1cc(N2CC[C@H](NC(=O)Cc3ccccc3)C2)nc(Nc2ccc(C)c(C#N)c2)n1", "note": "[Example 426]", "EC50": 0.079}
{"smiles": "CCCc1cc(N2CC[C@H](NC(=O)CN3CCCCC3)C2)nc(Nc2ccc(C)c(C#N)c2)n1", "note": "[Example 427]", "EC50": 0.024}
{"smiles": "CCCc1cc(N2CC[C@H](NC(=O)Cc3cccnc3)C2)nc(Nc2ccc(C)c(C#N)c2)n1", "note": "[Example 428]", "EC50": 0.066}
{"smiles": "CCCc1cc(N2CC[C@H](NC(=O)Cc3ccncc3)C2)nc(Nc2ccc(C)c(C#N)c2)n1", "note": "[Example 429]", "EC50": 0.025}
{"smiles": "CCCc1cc(N2CC[C@H](NC(=O)Cc3cccs3)C2)nc(Nc2ccc(C)c(C#N)c2)n1", "note": "[Example 430]", "EC50": 0.027}
